Patent US20240216547A1, “USE OF FLUORESCEIN DICARBONATE DERIVATIVES AS A CELL MARKER” (UNIVERSITE JEAN MONNET SAINT ETIENNE, priority 2021, published 2024)

Key:
Format in all cases: cell-based
corneal endothelium = assay: Quality of cytoplasmic marking on corneal endothelium; settings: human corneal endothelium, 4 μM, 45 min
Description: The quality of cytoplasmic marking by compound 1 (solution F4267) on corneal endothelium was compared to that of Calcein-AM by staining paired corneas. The endothelial surface of the corneas was incubated for 45 minutes either with the F4267 solution (40 μM on the left eye, LE) or with Calcein-AM (4 μM on the right eye, RE) following a validated staining protocol. (Invest Ophthalmol Vis Sci. 2011, 52 (8), 6018-6025, Pipparelli and al.) (n=2 pairs of corneas).

[1] = test system: normal human fetal lung fibroblasts HEL299; assay: Quality of cytoplasmic marking on adherent cells; settings: HEL299, 4 μM, FITC filter, macroscope
Description: The quality of cytoplasmic marking by compound 1 on cells was evaluated on the adherent line of normal human fetal lung fibroblasts HEL299 [ATCC CCL-137], because they form a cellular monolayer (a single thickness facilitating the evaluation of cellular morphology and enumeration). Cells were seeded at 1.10^5 cells/mL 72 h before marking, then marked with the solution of compound 1 designated by the reference F4267 at [4 μM] and [40 μM] or with a solution of Calcein-AM [4 μM], then observed in a sterile Petri dish under the FITC filter of a macroscope (macro-zoom microscope, MVX10, Olympus, Tokyo, Japan) (2 wells per condition, n=1 experiments).

[2] = Cytotoxicity by LDH release (CyQUANT LDH Cytotoxicity Assay); settings: human, HCE-2, 4 μM, 45 min contact, read-out: cytotoxicity (% of dead cells, LDH)
Description: The cytotoxicity of a solution of compound 1 in Cremophor® EL [CAS 61791-12-6](molar ratio 1/1), designated under the reference F4267, compared to that of calcein-AM, was evaluated on the human corneal epithelium cell line immortalized by SV40, HCE-2 (ATCC CRL-11135) using two solutions of F4267 of concentrations [40 μM] and [1000 μM] or calcein-AM (FP-F19820, Interchim) [4 μM] diluted in optiMEM (11058021, Gibco, ThermoFisher) and deposited for 45 minutes on the cells (100 μL per well seeded 24 hours previously at 1.10^5 cells/mL [3788, Corning, surface: 0.32 cm^2]. After 45 minutes of contact with compound 1 or with calcein-AM, the cells were rinsed with their culture medium, then returned to culture in an oven with 5% CO2, at 37° C. Cytotoxicity was measured by dosing lactate dehydrogenases (LDH) released into the supernatant using the CyQUANT LDH Cytotoxicity Assay kit (C20301, ThermoFisher, see cytotoxicity test below) and expressed as % of dead cells using an internal standard. Cytotoxicity was evaluated 45 minutes (before rinsing), 24 h and 48 h after the start of incubation (3 wells per condition, n=1 experiments).
Lactate DeHydrogenases (LDH) are a family of ubiquitous cytosolic enzymes present in almost all cell types. Membrane damage causes a release of LDH into the external environment. There is a direct correlation between cellular cytotoxicity which causes membrane damage and the amount of LDH present in the extracellular environment. […]
The cytotoxicity test was carried out with tetrazolium salt (INT) which is converted into formazan. […] The concentration of formazan being proportional to the amount of LDH present in the medium, this was quantified by an absorbance reading at 555 nm, against a blank measurement at 650 nm to eliminate the parasitic absorbance of the medium. The percentage of dead cells is then calculated from the formula below, with the maximum LDH activity being that of a well from which all cells have been lysed, and the basal LDH activity, that of a non-treated well.

[3] = test system: HCEC-B4G12 corneal endothelial cells; assay: Impact of repeated cell marking on cell viability; settings: B4G12, 4 μM, daily marking 45 min, with or without PBS rinsing, D5
Description: The experiment is carried out with HCEC-B4G12 corneal endothelial cells (CVCL_2065). The cells are thawed and cultured in their culture medium. The cells are trypsinized once a week before being seeded in wells of 24-well slides at a concentration of 1.10^5 cells/mL. The cells are then incubated for 5 days at 37° C., 5% CO2 until 90% confluence.
The different wells are stained daily with Calcein-AM (4 μM) or product F4267 (40 μM), according to the following conditions: marking for 45 minutes, then rinsing with PBS or marking for 45 minutes without rinsing. The marking and possibly rinsing step is repeated every day for 4 successive days, then after 2 days without marking, the marking is repeated again for 2 consecutive days.
The marking steps are carried out in duplicate. Afterwards, each marking, a well for each of the conditions is observed by epifluorescence microscopy (Olympus IX81 Microscope, FITC channel, ×4 objective, L: 25, Texp: 142.7 ms), while the second well (control) is kept in the darkness in order to evaluate the impact of fluorescence observation at the end of the study. On the last day of the study, the marking is carried out with calecin-AM (4 μM) in the presence of Hoescht ( 1/500) or the product F4267 (40 μM) in the presence of Hoescht ( 1/500), and the wells are imaged in MIA×4 (reconstruction of several fields to obtain a complete image of the well). […]

## CC(=O)OCOC(=O)CN(CC(=O)OCOC(C)=O)Cc1c(OC(C)=O)ccc2c1Oc1c(ccc(OC(C)=O)c1CN(CC(=O)OCOC(C)=O)CC(=O)OCOC(C)=O)C21OC(=O)c2ccccc21 [Calcein-AM]
Corneal endothelium
  marking differentiating dead cells from living cells: marking differentiating dead cells from living cells
[1]
  quality of cytoplasmic marking: visualize the cell cytoplasms in a similar way
[2]; measured at 45 min
  cytotoxicity at 45 min, 4 µM: 0.6 ± 0.5%
[2]; measured at 24 h
  cytotoxicity at 24 h, 4 µM: 26.4 ± 14.1%
[2]; measured at 48 h
  cytotoxicity at 48 h, 4 µM: 18.8 ± 11.1%
[3]
  cell layer after repeated marking: less dense
[3]; listed as calcein-AM
  cell layer after repeated marking: absence of cell layer
